Results reported in ChEMBL document CHEMBL1221327, “Allicin and derivates are cysteine protease inhibitors with antiparasitic activity” (Bioorg Med Chem Lett, 2010).
Activity calls are given as the source filed them. No cut-off for these calls is given here.

How the values were obtained:
[1] = molecular target: T1, Cathepsin B (Homo sapiens, UniProt P07858); test: Inhibition of cathepsin B
[2] = molecular target: T2, Procathepsin L (Homo sapiens, UniProt P07711); test: Inhibition of cathepsin L
Target sequence in this assay (P07711 whole entry): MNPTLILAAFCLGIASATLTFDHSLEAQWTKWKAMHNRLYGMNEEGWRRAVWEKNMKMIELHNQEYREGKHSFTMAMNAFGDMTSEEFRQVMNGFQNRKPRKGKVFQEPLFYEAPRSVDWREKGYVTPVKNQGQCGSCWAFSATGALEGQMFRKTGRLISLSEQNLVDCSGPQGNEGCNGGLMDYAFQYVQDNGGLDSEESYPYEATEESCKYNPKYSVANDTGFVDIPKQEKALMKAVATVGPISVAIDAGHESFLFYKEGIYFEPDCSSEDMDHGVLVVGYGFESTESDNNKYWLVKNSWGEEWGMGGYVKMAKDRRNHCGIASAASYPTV

[3] = Inhibition of Plasmodium falciparum falcipain-2
[4] = molecular target: Rhodesain (Trypanosoma brucei rhodesiense, UniProt Q95PM0); test: Inhibition of Trypanosoma brucei rhodesiense rhodesain
Chain of Rhodesain (Q95PM0 whole entry): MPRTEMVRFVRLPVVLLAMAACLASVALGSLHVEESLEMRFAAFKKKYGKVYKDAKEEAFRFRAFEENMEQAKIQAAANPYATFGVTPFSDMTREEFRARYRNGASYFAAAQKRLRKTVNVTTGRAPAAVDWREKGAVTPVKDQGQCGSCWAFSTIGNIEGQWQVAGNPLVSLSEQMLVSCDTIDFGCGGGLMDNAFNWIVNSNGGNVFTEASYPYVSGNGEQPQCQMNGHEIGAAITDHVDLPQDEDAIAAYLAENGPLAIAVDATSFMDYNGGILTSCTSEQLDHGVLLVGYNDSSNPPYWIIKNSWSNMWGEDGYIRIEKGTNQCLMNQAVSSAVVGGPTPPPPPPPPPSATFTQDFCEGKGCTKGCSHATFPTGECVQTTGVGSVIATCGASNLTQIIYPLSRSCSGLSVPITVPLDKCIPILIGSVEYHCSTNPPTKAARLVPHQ

[5] = system: Plasmodium falciparum; test: Antiparasitic activity against Plasmodium falciparum; format: functional, organism-based
[6] = system: Trypanosoma brucei brucei; test: Antiparasitic activity against Trypanosoma brucei brucei; format: functional, organism-based
[7] = molecular target: T2, Procathepsin L; test: Inhibition of cathepsin L at 20 uM
Target sequence in this assay (P07711 114-333 limits assumed): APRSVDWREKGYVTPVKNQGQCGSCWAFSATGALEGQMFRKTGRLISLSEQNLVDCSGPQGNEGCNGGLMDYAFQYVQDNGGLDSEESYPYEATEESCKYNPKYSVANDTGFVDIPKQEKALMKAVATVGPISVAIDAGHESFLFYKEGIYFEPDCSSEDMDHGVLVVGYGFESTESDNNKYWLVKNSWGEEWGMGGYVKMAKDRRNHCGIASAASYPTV

[8] = system: Plasmodium falciparum; test: Inhibition of Plasmodium falciparum falcipain-2 at 20 uM
[9] = molecular target: Rhodesain (Trypanosoma brucei rhodesiense) (UniProt Q95PM0); test: Inhibition of Trypanosoma brucei rhodesiense rhodesain at 20 uM
Chain of Rhodesain (Trypanosoma brucei rhodesiense) (Q95PM0 1-450): as the sequence (Q95PM0 whole entry) above

[10] = molecular target: T1, Cathepsin B; settings: 20 uM
Description: Inhibition of cathepsin B at 20 uM

[11] = system: Plasmodium falciparum; test: Time dependent inhibition of Plasmodium falciparum falcipain-2 by Dixon plot analysis
[12] = molecular target: Rhodesain (Trypanosoma brucei rhodesiense) (UniProt Q95PM0); test: Time dependent inhibition of Trypanosoma brucei rhodesiense rhodesain by Dixon plot analysis
[13] = molecular target: T2, Procathepsin L; test: Time dependent inhibition of cathepsin L by Dixon plot analysis
Target sequence in this assay (P07711 114-333 limits assumed): as the sequence (P07711 114-333 limits assumed) above

[14] = molecular target: T1, Cathepsin B; test: Inhibition of cathepsin B at 100 uM
[15] = system: Plasmodium falciparum; test: Inhibition of Plasmodium falciparum falcipain-2 at 100 uM
[16] = molecular target: T2, Procathepsin L; test: Inhibition of cathepsin L at 100 uM
Target sequence in this assay (P07711 114-333 limits assumed): as above

Structure (SMILES)	Ki [1]	Ki [2]	Ki [3]	Ki [4]	IC50 [5]	IC50 [6]	inhibition [7]	inhibition [8]	inhibition [9]	inhibition [10]	TDI [11]	TDI [12]	TDI [13]	inhibition [14]	inhibition [15]	inhibition [16]
C=CCS[S+]([O-])CC=C (stereo unspecified) [ALLICIN]	8.6 µM	9.3 µM	1.04 µM	5.31 µM	5.21 µM	13.8 µM	inactive	inactive	inactive	inactive	–	–	–	–	–	–
[O-][S+](Cc1ccccc1)SCc1ccccc1 (stereo unspecified)	7.8 µM	31.7 µM	4.5 µM	2.31 µM	30.3 µM	–	–	–	–	–	48600 min⁻¹ M⁻¹	7800 min⁻¹ M⁻¹	–	–	–	–
CCCCCCS[S+]([O-])CCCCCC (stereo unspecified)	5.94 µM	10.4 µM	1.8 µM	1 µM	10.9 µM	3.08 µM	–	–	–	–	44100 min⁻¹ M⁻¹	83500 min⁻¹ M⁻¹	–	–	–	–
CCCS[S+]([O-])CCC (stereo unspecified)	15.6 µM	11.3 µM	26.4 µM	4.44 µM	78.3 µM	> 40 µM	–	–	–	–	10800 min⁻¹ M⁻¹	7150 min⁻¹ M⁻¹	6660 min⁻¹ M⁻¹	–	–	–
[O-][S+](SC1CCCCC1)C1CCCCC1 (stereo unspecified)	> 100 µM	> 100 µM	> 100 µM	> 100 µM	34.4 µM	–	–	–	–	–	–	–	–	–	–	–
CC(C)(C)S[S+]([O-])Cc1ccccc1 (stereo unspecified)	–	> 100 µM	–	> 100 µM	52.9 µM	11.9 µM	–	–	–	–	–	–	–	inactive	inactive	–
CC(C)(C)S[S+]([O-])C(C)(C)C (stereo unspecified)	–	–	> 100 µM	> 100 µM	72.5 µM	> 40 µM	–	–	–	–	–	–	–	inactive	–	inactive
CC(C)CCS[S+]([O-])CCC(C)C (stereo unspecified)	18.9 µM	3.4 µM	3.04 µM	0.36 µM	54.7 µM	–	–	–	–	–	–	–	–	–	–	–
